Where a chain is given by its changes, count along the chain named.
Columns and labels:
Type in all cases: binding
[1] = target: T1, BjPutA (proline utilization A) (Bradyrhizobium diazoefficiens, UniProt Q89E26, S607Y); experiment: intrinsic tryptophan fluorescence quenching
T1 sequence (Q89E26 1-999 S607Y): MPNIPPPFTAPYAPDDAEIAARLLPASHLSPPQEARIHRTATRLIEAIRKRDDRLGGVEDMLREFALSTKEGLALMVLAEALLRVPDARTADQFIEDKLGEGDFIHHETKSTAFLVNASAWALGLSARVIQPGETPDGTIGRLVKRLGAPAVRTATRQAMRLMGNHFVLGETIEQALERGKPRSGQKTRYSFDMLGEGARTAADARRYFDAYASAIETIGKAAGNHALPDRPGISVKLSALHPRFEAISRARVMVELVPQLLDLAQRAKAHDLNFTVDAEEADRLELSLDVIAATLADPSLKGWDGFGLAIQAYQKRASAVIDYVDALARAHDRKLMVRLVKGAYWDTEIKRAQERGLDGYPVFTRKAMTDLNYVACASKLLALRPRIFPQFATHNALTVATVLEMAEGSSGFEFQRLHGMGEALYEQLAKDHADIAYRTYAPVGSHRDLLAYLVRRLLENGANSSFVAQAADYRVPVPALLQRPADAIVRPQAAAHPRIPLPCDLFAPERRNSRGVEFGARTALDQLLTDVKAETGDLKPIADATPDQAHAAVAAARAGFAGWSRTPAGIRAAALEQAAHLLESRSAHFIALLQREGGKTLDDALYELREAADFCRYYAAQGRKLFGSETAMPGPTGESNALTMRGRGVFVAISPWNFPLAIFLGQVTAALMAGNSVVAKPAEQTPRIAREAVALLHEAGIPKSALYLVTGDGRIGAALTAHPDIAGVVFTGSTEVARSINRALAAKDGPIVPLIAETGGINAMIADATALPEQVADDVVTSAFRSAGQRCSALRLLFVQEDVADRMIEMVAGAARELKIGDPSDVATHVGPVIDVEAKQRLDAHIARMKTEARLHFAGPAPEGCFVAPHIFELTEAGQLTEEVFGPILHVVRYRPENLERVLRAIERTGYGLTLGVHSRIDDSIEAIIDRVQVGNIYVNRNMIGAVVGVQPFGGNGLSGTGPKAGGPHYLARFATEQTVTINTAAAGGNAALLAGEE

[2] = target: T2, BjPutA (proline utilization A) (Bradyrhizobium diazoefficiens, UniProt Q89E26); experiment: intrinsic tryptophan fluorescence quenching, single-site fit
T2 sequence (Q89E26 1-999): T1 sequence (Q89E26 1-999 S607Y) with Y607S

[3] = target: T3, BjPutA (proline utilization A) (Bradyrhizobium diazoefficiens, UniProt Q89E26, D778Y); experiment: intrinsic tryptophan fluorescence quenching
T3 sequence (Q89E26 1-999 D778Y): T1 sequence (Q89E26 1-999 S607Y) with Y607S, D778Y

- Kd [1]: 1 ± 0.04 µM
- Kd [2]: 0.6 ± 0.04 µM
- Kd [3]: 0.67 ± 0.04 µM
Structure (SMILES): NC(=O)c1ccc[n+]([C@@H]2O[C@H](COP(=O)(O)OP(=O)(O)OC[C@H]3O[C@@H](n4cnc5c(N)ncnc54)[C@H](O)[C@@H]3O)[C@@H](O)[C@H]2O)c1 [NAD^+]

Source: article PMC4131897 (Biochemistry, 2014)
